Test results published in patent US20240317735A1, “HYDROISOQUINOLINE OR HYDRONAPHTHYRIDINE COMPOUNDS FOR THE TREATMENT OF AUTOIMMUNE DISEASE” (Hoffmann-La Roche Inc., priority 2020, published 2024).
pIC50: −log10 of the molar value.

How the values were obtained:
human TLR7 = target: T1, human TLR7 (Homo sapiens, UniProt Q9NYK1); experiment: HEK293-Blue-hTLR-7 cells assay (SEAP reporter, R848 stimulation); type: cell-based; settings: HEK293-Blue-hTLR7 cells, R848, 20 hrs; read-out: HEK/hTLR7 IC50
T1 construct: host or cells: HEK293 (HEK-Blue hTLR7)
T1 sequence (Q9NYK1 27-1049): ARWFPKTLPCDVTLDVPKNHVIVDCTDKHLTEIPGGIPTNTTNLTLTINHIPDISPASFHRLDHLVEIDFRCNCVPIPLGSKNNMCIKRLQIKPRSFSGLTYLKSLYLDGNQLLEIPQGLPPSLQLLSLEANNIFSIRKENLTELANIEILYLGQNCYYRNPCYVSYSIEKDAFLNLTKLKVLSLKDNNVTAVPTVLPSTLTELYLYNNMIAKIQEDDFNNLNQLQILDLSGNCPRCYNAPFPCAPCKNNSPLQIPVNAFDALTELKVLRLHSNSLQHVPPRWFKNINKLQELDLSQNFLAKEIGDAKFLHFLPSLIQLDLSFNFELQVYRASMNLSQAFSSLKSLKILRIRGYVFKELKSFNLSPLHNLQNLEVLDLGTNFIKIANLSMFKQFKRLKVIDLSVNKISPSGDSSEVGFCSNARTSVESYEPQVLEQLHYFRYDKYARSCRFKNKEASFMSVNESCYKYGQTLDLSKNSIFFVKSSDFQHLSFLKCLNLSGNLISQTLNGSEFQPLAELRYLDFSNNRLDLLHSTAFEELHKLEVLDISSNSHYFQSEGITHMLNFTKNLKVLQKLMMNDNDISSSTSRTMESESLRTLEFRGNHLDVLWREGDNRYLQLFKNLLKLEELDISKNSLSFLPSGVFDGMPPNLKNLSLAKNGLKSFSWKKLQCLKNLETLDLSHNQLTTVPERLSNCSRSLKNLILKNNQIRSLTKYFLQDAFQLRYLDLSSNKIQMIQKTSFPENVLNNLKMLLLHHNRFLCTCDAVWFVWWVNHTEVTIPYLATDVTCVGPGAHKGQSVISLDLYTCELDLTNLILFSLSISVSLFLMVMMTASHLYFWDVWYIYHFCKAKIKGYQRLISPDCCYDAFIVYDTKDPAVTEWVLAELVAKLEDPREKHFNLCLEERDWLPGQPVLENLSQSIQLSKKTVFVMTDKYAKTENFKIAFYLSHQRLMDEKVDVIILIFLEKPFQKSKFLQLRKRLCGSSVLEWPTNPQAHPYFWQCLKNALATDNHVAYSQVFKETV
Protocol: The following tests were carried out in order to determine the activity of the compounds of formula (I) and (Ia) in HEK293-Blue-hTLR-7/8/9 cells assay.
A stable HEK293-Blue-hTLR-7 cell line was purchased from InvivoGen (Cat. #: hkb-htlr7, San Diego, California, USA). These cells were originally designed for studying the stimulation of human TLR7 by monitoring the activation of NF-κB. A SEAP (secreted embryonic alkaline phosphatase) reporter gene was placed under the control of the IFN-β minimal promoter fused to five NF-κB and AP-1-binding sites. The SEAP was induced by activating NF-κB and AP-1 via stimulating HEK-Blue hTLR7 cells with TLR7 ligands. Therefore the reporter expression w % as declined by TLR7 antagonist under the stimulation of a ligand, such as R848 (Resiquimod), for incubation of 20 hrs. The cell culture supernatant SEAP reporter activity was determined using QUANTI-Blue™ kit (Cat. #: rep-qb1, Invivogen, San Diego, Ca, USA) at a wavelength of 640 nm, a detection medium that turns purple or blue in the presence of alkaline phosphatase.
HEK293-Blue-hTLR7 cells were incubated at a density of 250,000˜450,000 cells/mL in a volume of 170 μL in a 96-well plate in Dulbecco's Modified Eagle's medium (DMEM) containing 4.5 g/L glucose, 50 U/mL penicillin, […], […] Normocin, 2 mM L-glutamine, 10% (v/v) heat-inactivated fetal bovine serum with addition of 20 μL test compound in a serial dilution in the presence of final DMSO at 1% and 10 μL of 20 uM R848 in above DMEM, perform incubation under 37° C. in a C02 incubator for 20 hrs. Then 20 μL of the supernatant from each well was incubated with 180 μL Quanti-blue substrate solution at 37° C. for 2 hrs and the absorbance was read at 620˜655 nm using a spectrophotometer. The signaling pathway that TLR7 activation leads to downstream NF-κB activation has been widely accepted, and therefore similar reporter assay was modified for evaluating TLR7 antagonist.

[1] = Human microsome stability assay; type: in vitro ADME; settings: 1 μM test compound, 0.5 mg/mL liver microsomal protein, 37° C., pH 7.4
Protocol: The human microsomal stability assay is used for early assessment of metabolic stability of a test compound in human liver microsomes.
Human liver microsomes (Cat. NO.: 452117, Corning, USA; Cat. NO.: H2610, Xenotech, USA) were preincubated with test compound for 10 minutes at 37° C. in 100 mM potassium phosphate buffer, pH 7.4. The reactions were initiated by adding NADPH regenerating system. The final incubation mixtures contained 1 μM test compound, 0.5 mg/mL liver microsomal protein, 1 mM MgCl2, 1 mM NADP, 1 unit/mL isocitric dehydrogenase and 6 mM isocitric acid in 100 mM potassium phosphate buffer, pH 7.4. After incubation times of 0, 3, 6, 9, 15 and 30 minutes at 37° C., 300 μL of cold acetonitrile (including internal standard) was added to 100 μL incubation mixture to terminate the reaction. Following precipitation and centrifugation, the amount of compound remaining in the samples were determined by LC-MS/MS. Controls of no NADPH regenerating system at zero and 30 minutes were also prepared and analyzed.

SMILES | pIC50 (human TLR7) | Clearance of Human microsome [1]
C[C@H]1CN(c2ccnc3c2cnn3C)Cc2ccc(OC[C@H]3CNCCN3)cc21 [Example 18, (4R)-4-methyl-2-(1-methylpyrazolo[3,4-b]pyridin-4-yl)-6-[[(2R)-piperazin-2-yl]methoxy]-3,4-dihydro-1H-isoquinoline] | 8.10 | 10.5 mL/min/kg
CCn1ncc2c(N3Cc4ccc(N5CCNCC5)cc4[C@@H](C)C3)ccnc21 [Example 22, (4R)-2-(1-ethylpyrazolo[3,4-b]pyridin-4-yl)-4-methyl-6-piperazin-1-yl-3,4-dihydro-1H-isoquinoline] | 8.00 | 6.2 mL/min/kg
Cc1cc(N2Cc3cnc(N4CC[C@@H](N)[C@H](F)C4)cc3[C@@H](C)C2)c2cnn(C)c2n1 [Example 80, (3R,4R)-3-fluoro-1-[(5R)-7-(1,6-dimethylpyrazolo[3,4-b]pyridin-4-yl)-5-methyl-6,8-dihydro-5H-2,7-naphthyridin-3-yl]piperidin-4-amine] | 7.92 | 6.2 mL/min/kg
Cc1cc(N2Cc3ccc(N4C[C@@H](F)[C@@H](N)C4)nc3[C@@H](C)C2)c2cnn(C)c2n1 [Example 69, (3S,4R)-4-fluoro-1-[(8S)-6-(1,6-dimethylpyrazolo[3,4-b]pyridin-4-yl)-8-methyl-7,8-dihydro-5H-1,6-naphthyridin-2-yl]pyrrolidin-3-amine] | 7.52 | 8.1 mL/min/kg
Cc1cc(N2Cc3cnc(O[C@@H]4C[C@H]5CNCCN5C4)cc3[C@@H](C)C2)c2cnn(C)c2n1 [Example 76, (4R)-2-(1,6-dimethylpyrazolo[3,4-b]pyridin-4-yl)-4-methyl-6-[[(7R,8aS)-1,2,3,4,6,7,8,8a-octahydropyrrolo[1,2-a]pyrazin-7-yl]oxy]-3,4-dihydro-1H-2,7-naphthyridine] | 7.72 | 6.2 mL/min/kg
C[C@H]1CN(c2ccnc3c2cnn3C)Cc2ccc(N3CC4(CCNC4)OC3=O)cc21 (stereo partly drawn) [Example 35, 3-[(4R)-4-methyl-2-(1-methylpyrazolo[3,4-b]pyridin-4-yl)-3,4-dihydro-1H-isoquinolin-6-yl]-1-oxa-3,7-diazaspiro[4.4]nonan-2-one] | 7.62 | 8.4 mL/min/kg
C[C@H]1CN(c2ccnc3c2cnn3C)Cc2ccc(N3CCNCC3)cc21 [Example 1, (4R)-4-methyl-2-(1-methylpyrazolo[3,4-b]pyridin-4-yl)-6-piperazin-1-yl-3,4-dihydro-1H-isoquinoline] | 8.52 | 6.2 mL/min/kg
Cc1cc(N2Cc3ccc(OC[C@@H]4CNCCN4)cc3[C@@H](C)C2)c2cnn(C)c2n1 [Example 31, (4R)-2-(1,6-dimethylpyrazolo[3,4-b]pyridin-4-yl)-4-methyl-6-[[(2S)-piperazin-2-yl]methoxy]-3,4-dihydro-1H-isoquinoline] | 7.62 | 7.9 mL/min/kg
C[C@H]1CN(c2ccnc3c2cnn3C)Cc2ccc(N3CCNCC3)nc21 [Example 62, (8S)-8-methyl-6-(1-methylpyrazolo[3,4-b]pyridin-4-yl)-2-piperazin-1-yl-7,8-dihydro-5H-1,6-naphthyridine] | 8.30 | 6.8 mL/min/kg
Cc1cc(N2Cc3ccc(N4CCC(O)(CN(C)C)CC4)cc3[C@@H](C)C2)c2cnn(C)c2n1 [Example 14, 4-[(dimethylamino)methyl]-1-[(4R)-2-(1,6-dimethylpyrazolo[3,4-b]pyridin-4-yl)-4-methyl-3,4-dihydro-1H-isoquinolin-6-yl]piperidin-4-ol] | 8.10 | 6.2 mL/min/kg
C[C@H]1CN(c2ccnc3c2cnn3C)Cc2ccc(N3CCN(Cc4cn(C)cn4)CC3)cc21 [Example 37, (4R)-4-methyl-6-[4-[(1-methylimidazol-4-yl)methyl]piperazin-1-yl]-2-(1-methylpyrazolo[3,4-b]pyridin-4-yl)-3,4-dihydro-1H-isoquinoline] | 7.85 | 8.2 mL/min/kg

More lines, in order of rising pIC50 (human TLR7), values ahead:

pIC50 (human TLR7) | Clearance of Human microsome [1] | SMILES
8.15 | 6.2 mL/min/kg | C[C@H]1CN(c2ccnc3c2cnn3C)Cc2ccc(OC3CN(C4CCNCC4)C3)cc21 [Example 41, (4R)-4-methyl-2-(1-methylpyrazolo[3,4-b]pyridin-4-yl)-6-[1-(4-piperidyl)azetidin-3-yl]oxy-3,4-dihydro-1H-isoquinoline]
8.15 | 10.1 mL/min/kg | C[C@H]1CN(c2ccnc3c2cnn3C)Cc2ccc(N3CC4(CNCCO4)C3)cc21 [Example 21, 2-[(4R)-4-methyl-2-(1-methylpyrazolo[3,4-b]pyridin-4-yl)-3,4-dihydro-1H-isoquinolin-6-yl]-5-oxa-2,8-diazaspiro[3.5]nonane]
8.15 | 9.9 mL/min/kg | C[C@H]1CN(c2ccnc3c2cnn3C)Cc2ccc(N3CCN(c4cc5c(cn4)CCNC5)CC3)cc21 [Example 9, 7-[4-[(4R)-4-methyl-2-(1-methylpyrazolo[3,4-b]pyridin-4-yl)-3,4-dihydro-1H-isoquinolin-6-yl]piperazin-1-yl]-1,2,3,4-tetrahydro-2,6-naphthyridine]
8.30 | 8.2 mL/min/kg | C[C@H]1CN(c2ccnc3c2cnn3C)Cc2ccc(N3CC4(CCNCC4)CC3=O)cc21 [Example 16, 2-[(4R)-4-methyl-2-(1-methylpyrazolo[3,4-b]pyridin-4-yl)-3,4-dihydro-1H-isoquinolin-6-yl]-2,8-diazaspiro[4.5]decan-3-one]
8.40 | 6.2 mL/min/kg | C[C@H]1CN(c2ccnc3c2cnn3C)Cc2ccc(N3CCC(N4CC(N)C4)CC3)cc21 [Example 28, 1-[1-[(4R)-4-methyl-2-(1-methylpyrazolo[3,4-b]pyridin-4-yl)-3,4-dihydro-1H-isoquinolin-6-yl]-4-piperidyl]azetidin-3-amine]
8.70 | 9.0 mL/min/kg | Cc1cc(N2Cc3ccc(N4CCC(N)CC4)nc3[C@@H](C)C2)c2cnn(C)c2n1 [Example 58, 1-[(8S)-6-(1,6-dimethylpyrazolo[3,4-b]pyridin-4-yl)-8-methyl-7,8-dihydro-5H-1,6-naphthyridin-2-yl]piperidin-4-amine]
